# Results as given in ChEMBL document CHEMBL1201862, “PubChem BioAssay data set” (2004).
# Activity calls are given as the source filed them.
# Key:
# [1] = Luminescence Cell-Based Dose Response to Identify Activators of 5'UTR Stem-Loop Driven Prion Protein mRNA Translation in H4-C Neuroglioblastoma Cells. [Related pubchem assays: 1829 (Project Summary), 1814 (Primary HTS)]; type: functional
# [2] = Luminescence Cell-Based Dose Response HTS to Identify Activators of Luciferase Translation or Activity in H4 […] Cells. [Related pubchem assays: 1829 (Project Summary), 1814 (Primary HTS)]; type: functional
# H4 = test: Luminescence Cell-Based Dose Response HTS to Identify Activators of 5'UTR Stem-Loop Driven Prion Protein mRNA Translation in H4 Neuroglioblastoma Cells. [Related pubchem assays: 1829 (Project Summary), 1814 (Primary HTS)]; type: functional; conditions: Homo sapiens
# [3] = Luminescence Cell-Based Dose Response to Identify Activators of Luciferase Translation or Activity in H4-C Neuroglioblastoma Cells. [Related pubchem assays: 1829 (Project Summary), 1814 (Primary HTS)]; type: functional
# [4] = Luminescence Cell-Based Dose Confirmation to Identify Activators of 5'UTR Stem-Loop Driven Alpha-Synuclein mRNA Translation in H4 Neuroglioblastoma Cells. [Related pubchem assays: 1829 (Project Summary), 1814 (Primary HTS)]; type: functional
# [5] = viability loss in THP-1 monocytes – THP-1 cells, cytotoxicity control for Vif-APOBEC3G degradation inhibitor project, dose response (AID 1117359); type: functional; conditions: THP-1
# [6] = mitochondrial function rescue without frataxin homolog – Friedreich's ataxia, plus single-dose screen, dose response (AID 1465); type: functional;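 note: yeast depleted of Yfh1p frataxin homolog grown on glycerol needing respiration; WST-1 tetrazolium dye reduction as measure of cellular dehydrogenase metabolic activity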
# Troponin, cardiac muscle = Troponin, cardiac muscle (Homo sapiens, UniProt P19429+P45379+P63316); test: Fluorescence-based biochemical high throughput dose response assay for activators of the calcium sensitivity of cardiac Regulated Thin Filaments (RTF). [Related pubchem assays (depositor defined):AID493008, AID493018, AID504382, AID504383]; type: protein-complex assay
# [7] = biological target: NAD-dependent protein deacylase sirtuin-5, mitochondrial (Homo sapiens, UniProt Q9NXA8); test: sirtuin-5 deacylation blockers, concentration series – biochemical, fluorescence imaging, cherry-pick, set 5, dose response (AID 720591);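 note: desuccinylation of succinyl peptide AMC substrate read as fluorescence after trypsin release; potency of inhibitors that lower fluorescence and may act on trypsin instead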
# NAD-dependent protein deacylase sirtuin-5, mitochondrial, sequence (Q9NXA8 whole entry): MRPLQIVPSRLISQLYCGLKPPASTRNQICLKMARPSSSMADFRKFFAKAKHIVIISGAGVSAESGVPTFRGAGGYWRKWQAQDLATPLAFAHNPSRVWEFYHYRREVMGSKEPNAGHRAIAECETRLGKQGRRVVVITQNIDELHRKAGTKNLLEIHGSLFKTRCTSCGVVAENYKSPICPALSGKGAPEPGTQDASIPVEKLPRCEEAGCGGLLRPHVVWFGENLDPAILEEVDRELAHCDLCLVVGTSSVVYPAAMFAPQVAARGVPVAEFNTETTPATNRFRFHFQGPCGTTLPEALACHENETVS
# [8] = IC50 of Artemis nuclease activity blockers – biochemical, fluorescence intensity, dose response (AID 720701); type: functional;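 note: Artemis endonuclease enzyme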
# Caspase-3 = biological target: T1, Caspase-3 (Homo sapiens, UniProt P42574); type: functional;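 note: Dose-response selectivity test against caspase-3 for candidate inhibitors of sentrin-specific proteases (SENPs)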
# T1 sequence (P42574 whole entry): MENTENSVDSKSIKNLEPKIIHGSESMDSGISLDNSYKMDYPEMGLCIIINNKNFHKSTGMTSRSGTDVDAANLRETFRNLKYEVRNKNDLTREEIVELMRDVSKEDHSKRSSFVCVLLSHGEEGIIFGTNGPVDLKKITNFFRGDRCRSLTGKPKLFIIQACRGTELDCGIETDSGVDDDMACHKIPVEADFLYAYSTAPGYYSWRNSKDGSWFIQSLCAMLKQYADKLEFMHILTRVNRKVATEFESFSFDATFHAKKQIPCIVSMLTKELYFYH
# [9] = biological target: T2, Sentrin-specific protease 7 (Homo sapiens, UniProt Q9BQF6); type: functional;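 note: Luminescence-based dose-response confirmation of ultra-high-throughput screening hits, measuring inhibition of SENP7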
# T2 sequence (Q9BQF6 whole entry): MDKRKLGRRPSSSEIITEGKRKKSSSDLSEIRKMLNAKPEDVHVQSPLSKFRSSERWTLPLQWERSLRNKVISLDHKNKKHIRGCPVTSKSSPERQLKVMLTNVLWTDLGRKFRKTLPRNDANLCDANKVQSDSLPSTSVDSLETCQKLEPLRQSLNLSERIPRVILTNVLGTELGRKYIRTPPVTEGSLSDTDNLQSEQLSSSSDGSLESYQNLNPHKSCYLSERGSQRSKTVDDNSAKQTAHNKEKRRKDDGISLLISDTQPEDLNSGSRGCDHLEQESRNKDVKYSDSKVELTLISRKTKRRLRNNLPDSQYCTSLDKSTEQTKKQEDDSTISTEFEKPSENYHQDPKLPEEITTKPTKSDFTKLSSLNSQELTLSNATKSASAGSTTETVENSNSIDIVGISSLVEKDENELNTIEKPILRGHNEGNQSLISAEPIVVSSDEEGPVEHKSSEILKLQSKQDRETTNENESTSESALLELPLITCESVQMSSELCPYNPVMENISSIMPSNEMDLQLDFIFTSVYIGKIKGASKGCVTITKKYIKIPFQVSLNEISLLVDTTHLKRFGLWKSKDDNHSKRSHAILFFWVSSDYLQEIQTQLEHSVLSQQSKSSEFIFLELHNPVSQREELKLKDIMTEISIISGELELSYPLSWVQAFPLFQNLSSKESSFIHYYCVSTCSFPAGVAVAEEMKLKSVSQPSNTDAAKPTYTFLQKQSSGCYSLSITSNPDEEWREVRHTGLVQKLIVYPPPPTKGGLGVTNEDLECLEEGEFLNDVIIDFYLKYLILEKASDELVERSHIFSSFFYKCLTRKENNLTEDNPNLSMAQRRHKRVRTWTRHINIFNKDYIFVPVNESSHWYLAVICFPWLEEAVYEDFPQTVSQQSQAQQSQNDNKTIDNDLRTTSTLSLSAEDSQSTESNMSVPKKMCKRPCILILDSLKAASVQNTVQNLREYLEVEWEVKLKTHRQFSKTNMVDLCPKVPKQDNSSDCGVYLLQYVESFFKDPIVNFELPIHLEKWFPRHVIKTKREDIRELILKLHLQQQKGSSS
# [10] = biological target: T3, Sentrin-specific protease 6 (Homo sapiens, UniProt Q9GZR1); type: functional;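 note: Luminescence-based dose-response confirmatory assay of SENP6 inhibition, following up an ultra-high-throughput screen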
# T3 sequence (Q9GZR1 whole entry): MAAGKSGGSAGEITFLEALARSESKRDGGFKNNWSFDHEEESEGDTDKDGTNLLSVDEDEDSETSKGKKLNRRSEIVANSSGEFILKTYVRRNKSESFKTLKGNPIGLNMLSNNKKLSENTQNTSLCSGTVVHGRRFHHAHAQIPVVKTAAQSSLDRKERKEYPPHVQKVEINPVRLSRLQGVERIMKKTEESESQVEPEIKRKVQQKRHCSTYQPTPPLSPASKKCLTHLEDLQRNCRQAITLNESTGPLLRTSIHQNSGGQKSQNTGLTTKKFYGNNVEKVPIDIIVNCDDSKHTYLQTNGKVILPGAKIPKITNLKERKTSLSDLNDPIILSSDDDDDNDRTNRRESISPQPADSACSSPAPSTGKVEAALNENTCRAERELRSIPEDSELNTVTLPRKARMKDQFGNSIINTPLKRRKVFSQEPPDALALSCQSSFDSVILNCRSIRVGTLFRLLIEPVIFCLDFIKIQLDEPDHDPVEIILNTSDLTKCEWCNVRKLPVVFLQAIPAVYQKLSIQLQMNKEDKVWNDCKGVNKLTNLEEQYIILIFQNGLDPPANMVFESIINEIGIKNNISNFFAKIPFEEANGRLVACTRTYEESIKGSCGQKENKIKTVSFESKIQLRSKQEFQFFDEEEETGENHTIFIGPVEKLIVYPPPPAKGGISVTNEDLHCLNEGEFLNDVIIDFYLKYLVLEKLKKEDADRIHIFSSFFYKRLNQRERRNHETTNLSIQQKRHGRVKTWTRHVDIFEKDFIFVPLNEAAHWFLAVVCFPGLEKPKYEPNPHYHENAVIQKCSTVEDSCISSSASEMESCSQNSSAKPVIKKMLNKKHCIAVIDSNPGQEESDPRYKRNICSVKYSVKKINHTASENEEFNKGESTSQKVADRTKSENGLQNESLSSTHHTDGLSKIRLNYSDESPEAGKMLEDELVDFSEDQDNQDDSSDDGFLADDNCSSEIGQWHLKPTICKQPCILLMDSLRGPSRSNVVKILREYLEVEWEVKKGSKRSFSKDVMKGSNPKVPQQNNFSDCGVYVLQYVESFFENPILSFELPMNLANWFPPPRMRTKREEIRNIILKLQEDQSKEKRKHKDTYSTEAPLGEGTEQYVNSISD
# [11] = biological target: T4, Sentrin-specific protease 8 (Homo sapiens, UniProt Q96LD8); type: functional;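 note: luminescence read-out of SENP8 inhibition, dose-response confirmation following an ultra-high-throughput screen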
# T4 sequence (Q96LD8 whole entry): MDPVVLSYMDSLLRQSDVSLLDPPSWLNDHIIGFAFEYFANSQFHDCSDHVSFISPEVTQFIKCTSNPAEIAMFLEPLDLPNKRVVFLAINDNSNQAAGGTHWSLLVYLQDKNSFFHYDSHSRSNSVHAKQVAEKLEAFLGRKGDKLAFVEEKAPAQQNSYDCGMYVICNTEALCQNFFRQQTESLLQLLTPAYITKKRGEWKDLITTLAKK
# [12] = biological target: T5, Oxysterols receptor LXR-beta (Homo sapiens, UniProt P55055); type: functional, cell-based;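 note: Cell-based luminescence dose-response assay of agonist activity at LXR, run as a confirmatory counterscreen to a daf-12 agonist screen; HEK293 cells with Gal4-LXR fusion and GAL4-driven luciferase reporter; agonist potency from rising luciferase signal of a Gal4-LXR reporter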
# T5 sequence (P55055 whole entry): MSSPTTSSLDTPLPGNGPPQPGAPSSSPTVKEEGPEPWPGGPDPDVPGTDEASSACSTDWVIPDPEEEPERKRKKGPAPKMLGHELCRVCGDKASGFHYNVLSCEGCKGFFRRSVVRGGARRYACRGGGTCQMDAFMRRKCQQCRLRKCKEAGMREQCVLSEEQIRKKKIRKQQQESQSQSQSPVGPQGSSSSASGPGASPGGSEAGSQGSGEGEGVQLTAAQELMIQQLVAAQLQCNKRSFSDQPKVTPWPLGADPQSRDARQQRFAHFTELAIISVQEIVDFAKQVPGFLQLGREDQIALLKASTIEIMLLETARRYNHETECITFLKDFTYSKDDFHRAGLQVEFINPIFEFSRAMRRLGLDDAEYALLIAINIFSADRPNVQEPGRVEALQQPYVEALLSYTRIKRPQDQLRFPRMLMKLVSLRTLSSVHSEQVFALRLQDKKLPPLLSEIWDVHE
structure (smiles),measurement,setting,value
Cc1ccc(-n2c(C)cc(/C=C3\SC(=O)NC3=O)c2C)cc1,EC50,[1],0.512 µM (active)
same,EC50,[2],< 0.1 µM (inconclusive)
same,EC50,H4,0.749 µM (active)
same,EC50,[3],0.401 µM (active)
same,EC50,[4],0.344 µM (active)
COc1ccc(-c2[nH]c3ccccc3c2SCCN)cc1,CC50,[5],28.3 µM (active)
CCCN1C=CC(=CC=C(C#N)C#N)C=C1,EC50,[6],> 100 µM (active)
same,EC50,"Troponin, cardiac muscle",7.62 µM (active)
O=C(COc1ccc2c(c1)OCO2)Nc1ccc(Cl)cn1,AC50,[7],> 30 µM (inactive)
N#C/C(=C\c1ccc(N2CCOCC2)o1)C(=O)NCCc1ccccc1,EC50,[6],> 100 µM (active)
COc1ccc(C2CC(c3ccc(Cl)cc3)Nc3nc(NC(=O)c4ccco4)nn32)cc1 (stereo not drawn),IC50,[8],11.8 µM (active)
Nc1nc(-c2ccccc2)nc2sc3c(c12)CCCC3,IC50,Caspase-3,19 µM (active)
same,IC50,[9],3.08 µM (active)
same,IC50,[10],10 µM (active)
same,IC50,[11],5.99 µM (active)
same,EC50,[12],> 67.5 µM (inactive)
same,EC50,cells,> 67.5 µM (inactive)
CC(C)N(C(=O)[C@H]1C[C@H](CC(=O)NCc2cccc(C(F)(F)F)c2)C(=O)N2CCc3c([nH]c4cc(CCC(=O)N(C)C)ccc34)[C@]12C)C(C)C,AC50,[7],> 30 µM (inactive)
